Laboratory results reported in PubChem BioAssay AID1918934 (Molecular Pharmacology Branch, DTP, NCI, 2023).

Tested on: 292921-168-R-J2-PDC complex spheroid viability
Assay: Anticancer human tumor 292921-168-R-J2-PDC patient-derived pancreatic carcinoma cell line growth inhibition
Conditions: for IC50: curve of first compound; for viability, T/C: stronger effect = lower value
How it was run: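 Complex spheroids of tumor cells with HUVEC and human MSCs, exposed to iadademstat combined with other agents. Each agent tested in half-log steps from near clinical Cmax (else 10 microM top), DMSO ≤0.25%.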

[1] = second compound 0.1 µM, first compound 0.0316 µM
[2] = second compound 0.1 µM, first compound 0.1 µM
[3] = second compound 0.1 µM, first compound 0.316 µM
[4] = second compound 0.1 µM, first compound 1 µM
[5] = second compound 0.1 µM, first compound 3.16 µM
[6] = second compound 0.1 µM, first compound 10 µM
[7] = second compound 0.316 µM, first compound 0.0316 µM
[8] = second compound 0.316 µM, first compound 0.1 µM
[9] = second compound 0.316 µM, first compound 0.316 µM
[10] = second compound 0.316 µM, first compound 1 µM
[11] = second compound 0.316 µM, first compound 3.16 µM
[12] = second compound 0.316 µM, first compound 10 µM
[13] = second compound 1 µM, first compound 0.0316 µM
[14] = second compound 1 µM, first compound 0.1 µM
[15] = second compound 1 µM, first compound 0.316 µM
[16] = second compound 1 µM, first compound 1 µM
[17] = second compound 1 µM, first compound 3.16 µM
[18] = second compound 1 µM, first compound 10 µM
[19] = second compound 3.16 µM, first compound 0.0316 µM
[20] = second compound 3.16 µM, first compound 0.1 µM
[21] = second compound 3.16 µM, first compound 0.316 µM
[22] = second compound 3.16 µM, first compound 1 µM
[23] = second compound 3.16 µM, first compound 3.16 µM
[24] = second compound 3.16 µM, first compound 10 µM
[25] = second compound 10 µM, first compound 0.0316 µM
[26] = second compound 10 µM, first compound 0.1 µM
[27] = second compound 10 µM, first compound 0.316 µM
[28] = second compound 10 µM, first compound 1 µM
[29] = second compound 10 µM, first compound 3.16 µM
[30] = second compound 10 µM, first compound 10 µM
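Further: seven day compound exposure before luminescent viability read.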
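Wherever viability, T/C is given: 100% = DMSO vehicle control wells.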

**Q.** `CC1(C)CCC(CN2CCN(c3ccc(C(=O)NS(=O)(=O)c4ccc(NCC5CCOCC5)c([N+](=O)[O-])c4)c(Oc4cnc5[nH]ccc5c4)c3)CC2)=C(c2ccc(Cl)cc2)C1` + NC1CCC(NC2CC2c2ccccc2)CC1 was tested. Which IC50 (second compound 0.1 µM) did it give?
**A.** 1640 nM

**Q.** What about the IC50 (second compound 0.316 µM) of the same compound?
**A.** 1310 nM

**Q.** And the IC50 (second compound 1 µM)?
**A.** 1330 nM

**Q.** What about the IC50 (second compound 3.16 µM) of the same compound?
**A.** 1260 nM

**Q.** And the IC50 (second compound 10 µM)?
**A.** 1110 nM

**Q.** What about the viability, T/C [1] of the same compound?
**A.** 63.5%

**Q.** What about the viability, T/C [2] of the same compound?
**A.** 71.4%

**Q.** And the viability, T/C [3]?
**A.** 73.3%

**Q.** And the viability, T/C [4]?
**A.** 72.4%

**Q.** What about the viability, T/C [5] of the same compound?
**A.** 23.2%

**Q.** And the viability, T/C [6]?
**A.** 0.18%

**Q.** And the viability, T/C [7]?
**A.** 66.3%

**Q.** What about the viability, T/C [8] of the same compound?
**A.** 60.1%

**Q.** What about the viability, T/C [9] of the same compound?
**A.** 68.2%

**Q.** And the viability, T/C [10]?
**A.** 60.1%

**Q.** And the viability, T/C [11]?
**A.** 15.8%

**Q.** What about the viability, T/C [12] of the same compound?
**A.** 0.25%

**Q.** What about the viability, T/C [13] of the same compound?
**A.** 53%

**Q.** And the viability, T/C [14]?
**A.** 58.8%

**Q.** And the viability, T/C [15]?
**A.** 65.4%

**Q.** What about the viability, T/C [16] of the same compound?
**A.** 67.6%

**Q.** What about the viability, T/C [17] of the same compound?
**A.** 16.2%

**Q.** What about the viability, T/C [18] of the same compound?
**A.** 0.26%

**Q.** What about the viability, T/C [19] of the same compound?
**A.** 58.1%

**Q.** What about the viability, T/C [20] of the same compound?
**A.** 60.9%

**Q.** What about the viability, T/C [21] of the same compound?
**A.** 62.3%

**Q.** And the viability, T/C [22]?
**A.** 59.4%

**Q.** And the viability, T/C [23]?
**A.** 12.2%

**Q.** What about the viability, T/C [24] of the same compound?
**A.** 0.14%

**Q.** And the viability, T/C [25]?
**A.** 64.2%

**Q.** What about the viability, T/C [26] of the same compound?
**A.** 64%

**Q.** And the viability, T/C [27]?
**A.** 66.4%

**Q.** And the viability, T/C [28]?
**A.** 53.4%

**Q.** And the viability, T/C [29]?
**A.** 12.7%

**Q.** And the viability, T/C [30]?
**A.** 0.23%

**Q.** How did the IC50 (second compound 0.1 µM) turn out when `CC1COCCN1c1cc(C2(S(C)(=N)=O)CC2)nc(-c2ccnc3[nH]ccc23)n1` (stereo not given) + NC1CCC(NC2CC2c2ccccc2)CC1 was run?
**A.** 351 nM

**Q.** What about the IC50 (second compound 0.316 µM) of the same compound?
**A.** 212 nM

**Q.** What about the IC50 (second compound 1 µM) of the same compound?
**A.** 200 nM

**Q.** What about the IC50 (second compound 3.16 µM) of the same compound?
**A.** 163 nM

**Q.** What about the IC50 (second compound 10 µM) of the same compound?
**A.** 128 nM

**Q.** What about the viability, T/C [1] of the same compound?
**A.** 65.1%

**Q.** What about the viability, T/C [2] of the same compound?
**A.** 64.5%

**Q.** What about the viability, T/C [3] of the same compound?
**A.** 52.3%

**Q.** What about the viability, T/C [4] of the same compound?
**A.** 24.9%

**Q.** What about the viability, T/C [5] of the same compound?
**A.** 12.7%

**Q.** What about the viability, T/C [6] of the same compound?
**A.** 11.4%

**Q.** What about the viability, T/C [7] of the same compound?
**A.** 62.2%

**Q.** What about the viability, T/C [8] of the same compound?
**A.** 56.7%

**Q.** And the viability, T/C [9]?
**A.** 46.5%

**Q.** And the viability, T/C [10]?
**A.** 24.5%

**Q.** And the viability, T/C [11]?
**A.** 14.3%

**Q.** What about the viability, T/C [12] of the same compound?
**A.** 12.1%

**Q.** What about the viability, T/C [13] of the same compound?
**A.** 54.1%

**Q.** And the viability, T/C [14]?
**A.** 56.1%

**Q.** And the viability, T/C [15]?
**A.** 46.6%

**Q.** What about the viability, T/C [16] of the same compound?
**A.** 23.7%

**Q.** And the viability, T/C [17]?
**A.** 12.7%

**Q.** And the viability, T/C [18]?
**A.** 11.8%

**Q.** And the viability, T/C [19]?
**A.** 61%

**Q.** What about the viability, T/C [20] of the same compound?
**A.** 51.6%

**Q.** What about the viability, T/C [21] of the same compound?
**A.** 44.8%

**Q.** And the viability, T/C [22]?
**A.** 22.6%

**Q.** And the viability, T/C [23]?
**A.** 13.3%

**Q.** What about the viability, T/C [24] of the same compound?
**A.** 12.7%

**Q.** What about the viability, T/C [25] of the same compound?
**A.** 56.3%

**Q.** And the viability, T/C [26]?
**A.** 52%

**Q.** And the viability, T/C [27]?
**A.** 41.2%

**Q.** And the viability, T/C [28]?
**A.** 24.2%

**Q.** What about the viability, T/C [29] of the same compound?
**A.** 14%

**Q.** And the viability, T/C [30]?
**A.** 12.1%
